20 compounds from ChEMBL document CHEMBL5126551, “Spiral molecules with antimalarial activities: A review” (Eur J Med Chem, 2022) can be followed below.

The subject of series [1] is Plasmodium falciparum. Briefly: Antimalarial activity against chloroquine and quinine sensitive Plasmodium falciparum assessed as inhibition of parasite growth. It is filed as functional, organism-based.
In series [2] the test system is Plasmodium falciparum. The experiment in a line: Antimalarial activity against chloroquine resistant Plasmodium falciparum K1 assessed as inhibition of parasite growth by [3H]-hypoxanthine incorporation assay. It is filed as functional, organism-based.
Series [3] relates to Plasmodium falciparum. The experiment in a line: Antimalarial activity against chloroquine sensitive Plasmodium falciparum NF54 assessed as inhibition of parasite growth by [3H]-hypoxanthine incorporation assay. Format: functional, organism-based.
Series [4] relates to Plasmodium falciparum. Briefly: Antimalarial activity against Plasmodium falciparum Dd2 assessed as inhibition of parasite growth. It is filed as functional, organism-based.
Series [5] concerns Plasmodium falciparum. The experiment in a line: Antimalarial activity against Plasmodium falciparum 3D7 assessed as inhibition of parasite growth. Format: functional, organism-based.
Series [6] deals with Plasmodium falciparum. Briefly: Antimalarial activity against chloroquine resistant Plasmodium falciparum FcB1 infected in human red blood cells assessed as inhibition of liberation and reinvasion steps of the erythrocytes by parasites measured after 72 hrs by titrated hypoxanthine incorporation assay. It is filed as functional, organism-based, Red blood cell. The following applies: FcB1, Erythrocyte.

The subject of series [7] is Plasmodium falciparum. The experiment in a line: Antimalarial activity against chloroquine sensitive Plasmodium falciparum infected in human red blood cells assessed as inhibition of liberation and reinvasion steps of the erythrocytes by parasites measured after 72 hrs by titrated hypoxanthine incorporation assay. Conditions: Erythrocyte. Format: functional, organism-based, Red blood cell.

The subject of series [8] is Plasmodium falciparum. The experiment in a line: Antimalarial activity against chloroquine-resistant Plasmodium falciparum K1 infected in human erythrocytes incubated for 72 hrs by parasite lactate dehydrogenase assay. Format: functional, organism-based. Conditions: K1, Erythrocyte.
A short description of series [9]: Cytotoxicity against human MRC5 cells assessed as inhibition of cell growth incubated for 7 days by MTT assay. It is filed as toxicity, cell-based. In general terms: Tetrazolium dyes change colour on reduction, which living cells bring about.
Series [10] relates to Plasmodium falciparum. The experiment in a line: Antimalarial activity against Plasmodium falciparum 3D7 infected in human plasma assessed as inhibition of parasite growth by Giema staining based assay. Format: functional, organism-based. The following applies: 3D7, Plasma.
Series [11] deals with Plasmodium falciparum. The experiment in a line: Antimalarial activity against chloroquine-resistant Plasmodium falciparum K14 infected in human red blood cells assessed as inhibition of parasite growth incubated for 42 hrs by [3H]-hypoxanthine incorporation assay. It is filed as functional, organism-based, Red blood cell. The following applies: K14, Erythrocyte.
Series [12] relates to Plasmodium falciparum. The experiment in a line: Antimalarial activity against chloroquine-sensitive Plasmodium falciparum D6 assessed as inhibition of parasite growth by parasite lactate dehydrogenase assay. Format: functional, organism-based.
Series [13] deals with Plasmodium falciparum. The experiment in a line: Antimalarial activity against chloroquine-resistant Plasmodium falciparum W2 assessed as inhibition of parasite growth by parasite lactate dehydrogenase assay. Format: functional, organism-based.
Series [14] relates to Plasmodium falciparum. Briefly: Antimalarial activity against chloroquine and antifolate resistant Plasmodium falciparum K1 infected in human erythrocyte preincubated for 24 hrs followed by hypoxanthine addition and measured after 18 to 20 hrs by [3H]-hypoxanthine incorporation assay. It is filed as functional, organism-based.
For series [15], the system named is Plasmodium falciparum. Briefly: Antimalarial activity against Plasmodium falciparum Cam3.I^R539T assessed as reduction in parasite survival at 49 nM measured after 6 hrs relative to control. Format: functional.
For series [16], the system named is Plasmodium falciparum. Briefly: Antimalarial activity against Plasmodium falciparum Cam3.I^R539T assessed as reduction in parasite survival at 700 nM measured after 6 hrs relative to control. Format: functional.
Series [17] deals with Plasmodium falciparum. The experiment in a line: Antimalarial activity against Plasmodium falciparum Cam3.I^R539T assessed as reduction in parasite survival at 350 nM measured after 6 hrs relative to control. It is filed as functional.
The test system of series [18] is Plasmodium falciparum. The experiment in a line: Antimalarial activity against Plasmodium falciparum Cam3.I^R539T assessed as reduction in parasite survival at 88 nM measured after 6 hrs relative to control. It is filed as functional.
The test system of series [19] is Plasmodium falciparum. The experiment in a line: Antimalarial activity against Plasmodium falciparum Cam3.I^R539T assessed as reduction in parasite survival at 175 nM measured after 6 hrs relative to control. Format: functional.
Series [20] relates to Plasmodium falciparum. The experiment in a line: Antimalarial activity against Plasmodium falciparum K1 assessed as inhibition of parasite growth. It is filed as functional, organism-based.

pEC50, pIC50: −log10 of the molar value. Values after ≈ are worked out from the molar mass of the structure shown.

Regarding `CCOC(=O)C1=C2N=C(c3cccnc3)NN2C2=C(C(=O)CCC2)C12C(=O)Nc1ccc(F)cc12` (stereo not drawn), the pIC50 (usually the IC50 on a negative log10 scale, so that one unit is a factor of ten) in the series on Plasmodium falciparum [1] is 6.91.

Turning to `CC(C)(N)CNC(=O)C(=O)OC1CCCC2(C1)OOC1(O2)C2CC3CC(C2)CC1C3` (stereo not drawn), the values for the IC50 in the series with Plasmodium falciparum [2] and with Plasmodium falciparum [3] were 1 ng/mL (≈ 2.37 nM) and 0.91 ng/mL (≈ 2.15 nM), respectively.

For the compound `NCC1CCC2(CC1)OOC1(O2)C2CC3CC(C2)CC1C3` (stereo not drawn), the IC50 (usually the concentration that inhibits the measured activity by half) in the series with Plasmodium falciparum [2] stood at 0.39 ng/mL (≈ 1.33 nM); with Plasmodium falciparum [3], 0.42 ng/mL (≈ 1.43 nM).

For the compound `C1CCCCCC2(CCCCC1)OOCCCOO2`, the negative logarithm of the EC50 (pEC50) – broadly, the negative decadic logarithm of the EC50, by convention in mol/L – with Plasmodium falciparum [4] is 6.05; in the series with Plasmodium falciparum [5], 6.57. Regarding `O=C(O)CC1CCC2(CC1)OOC1(O2)C2CC3CC(C2)CC1C3` (stereo not drawn), the IC50 was found to be 34 ng/mL (≈ 105 nM) with Plasmodium falciparum [2] and 45 ng/mL (≈ 140 nM) with Plasmodium falciparum [3]. In the case of `Clc1ccc2c(NCCNC3CCC4(CC3)OOC3(c5ccccc5)CC(c5ccccc5)=CC3O4)ccnc2c1` (stereo not drawn), the pIC50 in the series with Plasmodium falciparum [6] is 7.68; in the series with Plasmodium falciparum [7] it was 8.10.

Take `CO[C@H]1C=CC2=CCN3CCc4cc5c(cc4[C@]23C1)OCO5` [ERYTHRALINE]: the negative-log IC50 (pIC50) in the series on Plasmodium falciparum [8] is 5.14. For the same compound, the IC50 at 7 days in series [9] was greater than 64000 nM. In the case of `CC1=CC(=O)CC(C)(C)[C@@]12C=C[C@H](C)O2`, in the series on Plasmodium falciparum [10], the pIC50 was 7.57.

Consider `CCN(CC)c1ccc(N2C(=O)C(Oc3ccccc3)C23c2ccccc2-c2ccccc23)cc1` (stereo not drawn), for which the pIC50 in the series on Plasmodium falciparum [11] was 5.19. As for `CC(C)(N)CNC(=O)CC1CCC2(CC1)OOC1(O2)C2CC3CC(C2)CC1C3` (stereo not drawn), the IC50 came to 0.57 ng/mL (≈ 1.45 nM) with Plasmodium falciparum [2] and 0.54 ng/mL (≈ 1.38 nM) in the series on Plasmodium falciparum [3]. Take `Cc1ccc(C2OOC3(CCN(S(=O)(=O)c4ccccc4)CC3)OO2)cc1`: the pIC50 is 6.52 in the series with Plasmodium falciparum [12] and less than 6.70 in the series on Plasmodium falciparum [13]. The compound `COc1cc2c(cc1OC)[C@]13C[C@@H](OC)C=CC1=CCN3CC2` [ERYSOTRINE] showed a pIC50 in the series with Plasmodium falciparum [8] of 4.69. Moreover, the concentration for half-maximal inhibition (IC50) at 7 days in [9] is greater than 64000 nM.

For `CCOC(=O)C1=C2N=C(c3ccncc3)NN2C2=C(C(=O)CCC2)C12C(=O)Nc1ccccc12` (stereo not drawn), the pIC50 in the series with Plasmodium falciparum [1] is 6.53.

For `Cc1ccc(S(=O)(=O)N2CCC3(CC2)OOC(C2CCC(C)CC2)OO3)cc1` (stereo not drawn), the negative logarithm of the IC50 (pIC50) in the series with Plasmodium falciparum [12] was 6.15; with Plasmodium falciparum [13] it was 6.08. On to `CCOC(=O)C1=C2N=C(c3cccnc3)NN2C2=C(C(=O)CCC2)C12C(=O)Nc1ccccc12` (stereo not drawn), for which, in the series with Plasmodium falciparum [1], the pIC50 was 6.37.

In the case of `C=CCN1C(=O)[C@]2(CC=CN3c4ccccc4C(=O)[C@@]32CC=C)c2ccccc21`, the pIC50 in the series with Plasmodium falciparum [14] is 5.03. For the compound `CC1(C)CC(O)(Cc2ccc(C3CCC4(CC3)OOC3(O4)C4CC5CC(C4)CC3C5)cc2)CC(C)(C)N1` (stereo not drawn), the Activity was 1.29% in the series on Plasmodium falciparum [15]; 0% in the series on Plasmodium falciparum [16]; 0% with Plasmodium falciparum [17]; 0.17% in the series with Plasmodium falciparum [18]; 0.12% with Plasmodium falciparum [19].

`c1cc(C2CCC3(CC2)OOC2(O3)C3CC4CC(C3)CC2C4)ccc1OCCC1CCNCC1` (stereo not drawn): the Activity in the series on Plasmodium falciparum [15] amounted to 0.76%; in the series with Plasmodium falciparum [16] it was 0%; in the series on Plasmodium falciparum [17] it was 0%; with Plasmodium falciparum [18], 0%; with Plasmodium falciparum [19], 0%. Turning to `COC(=O)C12C=C(OC)[C@]3(Cl)C(C)(C=C(C4=C[C@H](O)[C@@H]5O[C@]5(CC=C(C)C)[C@@H]4O)[C@]3(O)C13OC(=O)c1c(O)cc(C)cc1O3)C2` (stereo partly drawn), the pIC50 in the series on Plasmodium falciparum [20] was 5.57. With `CC(=O)O[C@@H]1[C@H](C)[C@@H](C)O[C@@]2([C@@H]1C)[C@@H](C)C=C(C)C(=O)[C@@H]2C`, in the series on Plasmodium falciparum [10], the pIC50 was 4.80.
